The target in experiment [1] is IRAK4 (Homo sapiens (Human), UniProt Q9NWZ3). Kind of experiment: IRAK4 Inhibition Assay. Particulars: ATP 500 μM; IRAK4 0.6 nM; 60 min room temperature; Caliper LABCHIP 3000. It counts as biochemical. The procedure: The assays were performed in U-bottom 384-well plates. The final assay volume was 30 μL prepared from 15 μL additions of enzyme and substrates (fluoresceinated peptide and ATP) and test compounds in assay buffer (20 mM HEPES pH 7.2, 10 mM MgCl2, 0.015% Brij 35 and 4 mM DTT). The reaction was initiated by the combination of IRAK4 with substrates and test compounds. The reaction mixture was incubated at room temperature for 60 min. and terminated by adding 45 μL of 35 mM EDTA to each sample. The reaction mixture was analyzed on the Caliper LABCHIP® 3000 (Caliper, Hopkinton, MA) by electrophoretic separation of the fluorescent substrate and phosphorylated product. Inhibition data were calculated by comparison to no enzyme control reactions for 100% inhibition and vehicle-only reactions for 0% inhibition. The final concentrations of reagents in the assays are ATP, 500 μM; FL-IPTSPITTTYFFFKKK peptide 1.5 μM; IRAK4, 0.6 nM; and DMSO, 1.6%.
IRAK4, sequence (Q9NWZ3 whole entry, species assumed): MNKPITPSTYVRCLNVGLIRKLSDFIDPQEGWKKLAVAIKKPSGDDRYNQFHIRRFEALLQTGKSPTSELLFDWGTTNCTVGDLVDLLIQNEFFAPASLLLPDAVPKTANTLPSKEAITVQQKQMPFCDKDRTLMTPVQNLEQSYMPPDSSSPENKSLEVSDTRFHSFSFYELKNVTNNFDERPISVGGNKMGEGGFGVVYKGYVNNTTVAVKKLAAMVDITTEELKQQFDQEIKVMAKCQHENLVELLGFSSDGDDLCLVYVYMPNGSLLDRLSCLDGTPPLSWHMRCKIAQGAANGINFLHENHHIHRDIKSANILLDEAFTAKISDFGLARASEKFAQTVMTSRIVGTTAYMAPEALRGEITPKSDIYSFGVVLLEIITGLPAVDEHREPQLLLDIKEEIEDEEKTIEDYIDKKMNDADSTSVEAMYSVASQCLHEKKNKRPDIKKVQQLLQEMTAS

The subject of experiment [2] is Human whole blood. Description: IRAK4 Whole Blood Assay (IL-6 levels after stimulation with TLR2 agonist lipoteichoic acid). Type of experiment: cell-based. Particulars: 10 μg/mL lipoteichoic acid, 5 hours. The procedure:
Human whole blood containing the anti-coagulant ACD-A was plated in 384-well plate (25 μL/well) and incubated with compounds for 60 minutes at 37° C. in a 5% CO2 incubator. The blood was stimulated with a TLR2 agonist, 10 μg/mL final concentration of lipoteichoic acid (Invivogen, San Diego, CA) in 25 μL RPMI (Gibco) for 5 hours in a 5% CO2 incubator. At the end of the incubation, plates were centrifuged at 2300 rpm for 5 minutes. Supernatants were harvested and analyzed for IL-6 levels by Flow Cytometry beads assay (BD Biosciences, San Jose, CA).

SMILES strings stand for the structures.

With `COC(=O)N[C@H]1CC[C@H](NC(=O)c2cnc3ccc(-c4cn[nH]c4)cc3c2NC(C)C)C1` [Example 26, methyl ((1S,3S)-3-(4-(isopropylamino)-6-(1H-pyrazol-4-yl)quinoline-3-carboxamido)cyclopentyl) carbamate], in experiment [1], the 50% inhibitory concentration (IC50) stood at 12.3 nM. Also, it took 1460 nM to reach a half-maximal effect in experiment [2] (EC50).

As to `CC(C)Nc1c(C(=O)NCCC2CC2)cnc2ccc(-c3cn[nH]c3)cc12` [Example 51, N-(2-cyclopropylethyl)-4-(isopropylamino)-6-(1H-pyrazol-4-yl)quinoline-3-carboxamide], in experiment [1], the IC50 was found to be 4.5 nM. The same compound returned an EC50 in experiment [2] of 699 nM.

Turning to `CC(C)Nc1c(C(=O)NCCN2CCS(=O)(=O)CC2)cnc2ccc(-c3cn[nH]c3)cc12` [Example 94, N-(2-(1,1-dioxidothiomorpholino)ethyl)-4-(isopropylamino)-6-(1H-pyrazol-4-yl) quinoline-3-carboxamide], the concentration for half-maximal inhibition (IC50) in experiment [1] turned out to be 9.5 nM. In experiment [2], the half-maximal effective concentration (EC50) was 2240 nM.

`CC(C)Nc1c(C(=O)NC[C@@H](F)C(C)(C)O)cnc2ccc(-c3cncs3)cc12` [Example 7, (R)—N-(2-fluoro-3-hydroxy-3-methylbutyl)-4-(isopropylamino)-6-(thiazol-5-yl)quinoline-3-carboxamide]: the IC50 in experiment [1] turned out to be 8.2 nM. In experiment [2], this compound returned a half-maximal effective concentration (EC50) of 5710 nM.

On to `CC(C)Nc1c(C(=O)NCCN2CCOCC2)cnc2ccc(-c3cn[nH]c3)nc12` [Example 144, 4-(isopropylamino)-N-(2-morpholinoethyl)-6-(1H-pyrazol-4-yl)-1,5-naphthyridine-3-carboxamide], for which the half-maximal inhibitory concentration (IC50) in experiment [1] worked out at 4 nM. For the same compound, the EC50 in experiment [2] was 285 nM.

Take `CC(=O)N[C@H]1CC[C@H](NC(=O)c2cnc3ccc(-c4cncs4)nc3c2NC(C)C)CC1` [Example 156, N-((1r,4r)-4-acetamidocyclohexyl)-4-(isopropylamino)-6-(thiazol-5-yl)-1,5-naphthyridine-3-carboxamide]: the half-maximal inhibitory concentration (IC50) in experiment [1] was found to be 4.3 nM. The EC50 in experiment [2] was 662 nM.

Regarding `CC(C)Nc1c(C(=O)NC2CCN(C(=O)N3CCOCC3)CC2)cnc2ccc(-c3cn[nH]c3)cc12` [Example 82, 4-(isopropylamino)-N-(1-(morpholine-4-carbonyl)piperidin-4-yl)-6-(1H-pyrazol-4-yl) quinoline-3-carboxamide], in experiment [1], the 50% inhibitory concentration (IC50) was found to be 9 nM. Moreover, in experiment [2], the midpoint of the response, the EC50, lay at 455 nM.

In the case of `CC(C)Nc1c(C(=O)NCCC2(O)CC(F)(F)C2)cnc2ccc(-c3cn[nH]c3)cc12` [Example 42, N-(2-(3,3-difluoro-1-hydroxycyclobutyl)ethyl)-4-(isopropylamino)-6-(1H-pyrazol-4-yl)quinoline-3-carboxamide], in experiment [1], the 50% inhibitory concentration (IC50) was 2.5 nM. Further, the midpoint of the response in experiment [2], the EC50, lay at 396 nM.

Regarding `CC(C)Nc1c(C(=O)NCCS(C)(=O)=O)cnc2ccc(-c3cn[nH]c3)cc12` [Example 88, 4-(isopropylamino)-N-(2-(methylsulfonyl)ethyl)-6-(1H-pyrazol-4-yl)quinoline-3-carboxamide], in experiment [1], the half-maximal inhibitory concentration (IC50) stood at 18.5 nM. This compound also yielded an EC50 in experiment [2] of 1520 nM.

As to `CCNc1c(C(=O)NC[C@@H](F)C(C)(C)O)cnc2ccc(-c3cn[nH]c3)cc12` [Example 27, (R)-4-(ethylamino)-N-(2-fluoro-3-hydroxy-3-methylbutyl)-6-(1H-pyrazol-4-yl)quinoline-3-carboxamide], the IC50 in experiment [1] amounted to 8.9 nM. The EC50 in experiment [2] amounted to 2820 nM.

In the case of `CC1(Nc2c(C(=O)NCCc3cccnc3)cnc3ccc(-c4cn[nH]c4)cc23)CC1` [Example 122, 4-((1-methylcyclopropyl)amino)-6-(1H-pyrazol-4-yl)-N-(2-(pyridin-3-yl)ethyl)quinoline-3-carboxamide], the 50% inhibitory concentration (IC50) in experiment [1] came to 2.5 nM. In experiment [2], this compound returned an EC50 of 1270 nM.

In the case of `CC(C)CCNC(=O)c1cnc2ccc(-c3cn[nH]c3)nc2c1NC(C)C` [Example 139, N-isopentyl-4-(isopropylamino)-6-(1H-pyrazol-4-yl)-1,5-naphthyridine-3-carboxamide], in experiment [1], the IC50 came out at 2.7 nM. In experiment [2], this compound registered an EC50 of 272 nM.

In experiment [2], `CC(C)Nc1c(-c2cc(C3CCCCN3)no2)cnc2ccc(-c3cn[nH]c3)cc12` (stereo not drawn) [Example 128, N-isopropyl-3-(3-(piperidin-2-yl)isoxazol-5-yl)-6-(1H-pyrazol-4-yl)quinolin-4-amine] displayed an EC50 of 758 nM.

`CC(O)CCNC(=O)c1cnc2ccc(-c3cn[nH]c3)cc2c1NCC(F)F` (stereo not drawn) [Example 65, 4-((2,2-difluoroethyl)amino)-N-(3-hydroxybutyl)-6-(1H-pyrazol-4-yl)quinoline-3-carboxamide] had a 50% effective concentration (EC50) in experiment [2] of 2200 nM.

For the compound `Cc1cc2ncc(C(=O)NCCC(C)(C)O)c(NC(C)C)c2cc1-c1cncs1` [Example 61, N-(3-hydroxy-3-methylbutyl)-4-(isopropylamino)-7-methyl-6-(thiazol-5-yl)quinoline-3-carboxamide], the IC50 in experiment [1] was 231 nM.

Regarding `CC(C)Nc1c(C(=O)NCCC2CCCN2C(=O)C2CC2)cnc2ccc(-c3cn[nH]c3)cc12` (stereo not drawn) [Example 93, N-(2-(1-(cyclopropanecarbonyl)pyrrolidin-2-yl)ethyl)-4-(isopropylamino)-6-(1H-pyrazol-4-yl)quinoline-3-carboxamide], the IC50 in experiment [1] turned out to be 29.3 nM.

On to `CC(C)Nc1c(C(=O)NCCC(C)(C)O)cnc2ccc(-c3ccc(F)nc3F)cc12` [Example 73, 6-(2,6-difluoropyridin-3-yl)-N-(3-hydroxy-3-methylbutyl)-4-(isopropylamino)quinoline-3-carboxamide], for which the IC50 in experiment [1] was found to be 51.2 nM.

Turning to `CC(C)Nc1c(C(=O)NCC2(CO)CC2)cnc2ccc(-c3cn[nH]c3)cc12` [Example 21, N-((1-(hydroxymethyl)cyclopropyl)methyl)-4-(isopropylamino)-6-(1H-pyrazol-4-yl)quinoline-3-carboxamide], the IC50 in experiment [1] is 114 nM.

`CC(O)CNc1c(C(=O)NC[C@@H](F)C(C)(C)O)cnc2ccc(-c3cn[nH]c3)cc12` (stereo partly drawn) [Example 30, N—((R)-2-fluoro-3-hydroxy-3-methylbutyl)-4-((2-hydroxypropyl)amino)-6-(1H-pyrazol-4-yl)quinoline-3-carboxamide]: the half-inhibitory concentration (IC50) in experiment [1] was 24.2 nM.

For the compound `CC(C)Nc1c(C(=O)NCCc2ncno2)cnc2ccc(-c3cn[nH]c3)cc12` [Example 106, N-(2-(1,2,4-oxadiazol-5-yl)ethyl)-4-(isopropylamino)-6-(1H-pyrazol-4-yl)quinoline-3-carboxamide], the IC50 in experiment [1] was found to be 118 nM.

As to `CC(C)Cc1nc(-c2cnc3ccc(-c4cn[nH]c4)cc3c2NC(C)C)n[nH]1` [Example 124, 3-(5-isobutyl-1H-1,2,4-triazol-3-yl)-N-isopropyl-6-(1H-pyrazol-4-yl)quinolin-4-amine], the half-maximal inhibitory concentration (IC50) in experiment [1] was determined as 107 nM.

Consider `CNC(=O)CCNC(=O)c1cnc2ccc(-c3cn[nH]c3)cc2c1NC(C)C` [Example 48, 4-(isopropylamino)-N-(3-(methylamino)-3-oxopropyl)-6-(1H-pyrazol-4-yl)quinoline-3-carboxamide], for which the 50% inhibitory concentration (IC50) in experiment [1] came to 30.7 nM.

Regarding `CC(C)Nc1c(-c2cn(CCS(C)(=O)=O)nn2)cnc2ccc(-c3cn[nH]c3)cc12` [Example 137, N-isopropyl-3-(1-(2-(methylsulfonyl)ethyl)-1H-1,2,3-triazol-4-yl)-6-(1H-pyrazol-4-yl)quinolin-4-amine], the IC50 in experiment [1] was 38.8 nM.

In the case of `Cc1cc(-c2ccc3ncc(C(=O)NCCC(C)(C)O)c(NC(C)C)c3c2)cnc1F` [Example 71, 6-(6-fluoro-5-methylpyridin-3-yl)-N-(3-hydroxy-3-methylbutyl)-4-(isopropylamino)quinoline-3-carboxamide], the half-inhibitory concentration (IC50) in experiment [1] amounted to 307 nM.

For the compound `CC(C)Nc1c(C(=O)N[C@H]2C[C@@H](O)C2)cnc2ccc(-c3cn[nH]c3)cc12` [Example 39, N-((1s,3s)-3-hydroxycyclobutyl)-4-(isopropylamino)-6-(1H-pyrazol-4-yl)quinoline-3-carboxamide], the IC50 in experiment [1] was 38.6 nM.

Turning to `CC(C)Nc1c(C(=O)NCCc2ncn[nH]2)cnc2ccc(-c3cn[nH]c3)cc12` [Example 104, N-(2-(1H-1,2,4-triazol-5-yl)ethyl)-4-(isopropylamino)-6-(1H-pyrazol-4-yl) quinoline-3-carboxamide], in experiment [1], the IC50 was 35.4 nM.

With `COCCNC(=O)c1cnc2ccc(-c3cn[nH]c3)cc2c1NC(C)C` [Example 18, 4-(isopropylamino)-N-(2-methoxyethyl)-6-(1H-pyrazol-4-yl)quinoline-3-carboxamide], the IC50 in experiment [1] is 28 nM.

For the compound `CC(C)Nc1c(C(=O)NCCc2nnn[nH]2)cnc2ccc(-c3cn[nH]c3)cc12` [Example 110, N-(2-(1H-tetrazol-5-yl)ethyl)-4-(isopropylamino)-6-(1H-pyrazol-4-yl)quinoline-3-carboxamide], the IC50 in experiment [1] stood at 212 nM.

As to `CC(C)Nc1c(C(=O)NCC(C)(C)CO)cnc2ccc(-c3cn[nH]c3)cc12` [Example 19, N-(3-hydroxy-2,2-dimethylpropyl)-4-(isopropylamino)-6-(1H-pyrazol-4-yl)quinoline-3-carboxamide], the concentration for half-maximal inhibition (IC50) in experiment [1] turned out to be 94.8 nM.

As to `CCNc1c(C(=O)NCCC(C)(C)O)cnc2ccc(-c3cn[nH]c3)cc12` [Example 38, 4-(ethylamino)-N-(3-hydroxy-3-methylbutyl)-6-(1H-pyrazol-4-yl)quinoline-3-carboxamide], the half-maximal inhibitory concentration (IC50) in experiment [1] was 49.2 nM.

Values taken from US12492186B2, “Bicyclic heterocyclic compounds useful as IRAK4 inhibitors” (BRISTOL-MYERS SQUIBB COMPANY, priority 2019, dated 2025).
